For 18 compounds, IC50 results are on record in patent publication US9856252B2, “2-(hetero)aryl-benzimidazole and imidazopyridine derivatives as inhibitors of asparagime emethyl transferase” (Cancer Therapeutics CRC Pty Ltd, priority 2013, dated 2018).

The IC50 is the concentration at which inhibition is half-maximal. Low values mean greater potency in that assay, high ones weaker potency in that assay.

Where a name gives a salt, the structure may show the parent alone.

Sequence of Full-length PRMT5 enzyme (NCBI Reference sequence NP_006100.2) co-expressed with His6-MEP50 (O14744 whole entry): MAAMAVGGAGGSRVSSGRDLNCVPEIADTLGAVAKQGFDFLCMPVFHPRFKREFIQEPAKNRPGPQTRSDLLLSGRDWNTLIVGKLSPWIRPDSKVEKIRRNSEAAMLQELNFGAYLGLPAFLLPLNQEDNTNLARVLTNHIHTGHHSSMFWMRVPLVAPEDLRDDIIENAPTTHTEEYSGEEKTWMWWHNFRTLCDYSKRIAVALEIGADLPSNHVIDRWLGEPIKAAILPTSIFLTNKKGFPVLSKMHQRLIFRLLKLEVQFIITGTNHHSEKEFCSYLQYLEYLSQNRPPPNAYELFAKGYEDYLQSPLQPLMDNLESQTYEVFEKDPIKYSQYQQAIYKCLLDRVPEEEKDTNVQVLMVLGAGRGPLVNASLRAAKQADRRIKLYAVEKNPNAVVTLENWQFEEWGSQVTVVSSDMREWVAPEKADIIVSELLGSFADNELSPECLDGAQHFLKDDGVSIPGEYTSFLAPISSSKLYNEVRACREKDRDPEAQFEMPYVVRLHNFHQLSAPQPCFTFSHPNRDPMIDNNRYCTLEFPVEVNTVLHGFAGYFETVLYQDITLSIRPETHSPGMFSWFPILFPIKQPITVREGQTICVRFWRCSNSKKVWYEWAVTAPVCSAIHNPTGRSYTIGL
Sequence of Full-length PRMT5 enzyme (NCBI Reference sequence NP_006100.2) co-expressed with His6-MEP50 (Q9BQA1 whole entry partner): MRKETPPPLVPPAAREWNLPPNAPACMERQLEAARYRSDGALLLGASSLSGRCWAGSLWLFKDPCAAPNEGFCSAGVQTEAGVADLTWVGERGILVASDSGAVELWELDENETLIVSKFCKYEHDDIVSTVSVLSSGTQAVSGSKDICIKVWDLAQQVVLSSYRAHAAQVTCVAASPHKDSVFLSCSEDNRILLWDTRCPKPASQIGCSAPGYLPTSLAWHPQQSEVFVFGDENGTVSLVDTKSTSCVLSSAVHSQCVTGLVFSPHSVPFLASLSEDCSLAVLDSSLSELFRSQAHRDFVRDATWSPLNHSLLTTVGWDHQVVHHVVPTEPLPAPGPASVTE

For the first assay, the target named is Full-length PRMT5 enzyme (NCBI Reference sequence NP_006100.2) co-expressed with His6-MEP50 (Homo sapiens (Human), UniProt O14744). The experiment in a line: PRMT5 Biochemical Assay. The conditions noted are these: histone H4 derived peptide substrate 200 nM, 1 μM S-Adenosyl methionine, 4 hours at 37° C., Transcreener EPIGEN fluorescence polarisation. Here is the method:
Compounds of the invention may be tested for in vitro activity in the following assay: A histone H4 derived peptide is used as substrate (amino acid sequence: […]N H2). Full-length PRMT5 enzyme (NCBI Reference sequence NP_006100.2) was co-expressed with His6-MEP50 in insect cells and purified via Nickel immobilized metal affinity and gel filtration chromatography (“the enzyme”).
The 6 μL assay reactions are run in Greiner brand black 384-well low volume plates. All reactions contained assay buffer (phosphate buffered saline, 0.01% (v/v) Tween-20, 0.01% (w/v) albumin from chicken egg white, 1 mM dithiothreitol, 200 nM peptide substrate, 1 μM S-Adenosyl methionine, and 15 ng/reaction enzyme, with the enzyme being omitted from negative control reactions. Compounds were added in a volume of 100 nL from dilution series prepared in DMSO, positive and negative control reactions receiving the same volume DMSO without compound. The plates were sealed with adhesive seals and incubated for 4 hours at 37° C. Reaction progress was measured using the Transcreener™ EPIGEN methyltransferase assay (BellBrook Labs, Madison, Wis.) as recommended by the manufacturer. To each reaction 2 μL detection mix were added, containing coupling enzymes, fluorescence polarisation tracer, and AMP antibody. Plates were incubated for 90 minutes before being read on a PerkinElmer EnVision™ plate reader in fluorescence polarisation mode.
Compound `c1ccc(COc2ccc(-c3nc4ccc(C5CCNCC5)nc4[nH]3)cc2)cc1` [Example 40, 2-(4-(benzyloxy)phenyl)-5-(piperidin-4-yl)-3H-imidazo[4,5-b]pyridine] displayed an IC50 of 223 nM.
Same read-out and setting: as for `CN1CCN(c2ccc3nc(-c4ccc(OCc5ccccc5)cc4)[nH]c3n2)CC1` [Example 26, 2-(4-(benzyloxy)phenyl)-5-(4-methylpiperazin-1-yl)-3H-imidazo[4,5-b]pyridine], the figure is 132 nM.
The same measure, in the same setting: as for `FC(F)(F)c1ccccc1COc1ccc(-c2nc3ccc(N4CCNCC4)nc3[nH]2)cc1` [Example 60], the figure is 1660 nM.
On to `COC(=O)c1cc(-c2nc3cc(C4CCNCC4)cnc3[nH]2)ccc1OCc1ccccc1` [Example 66, methyl 2-(benzyloxy)-5-(6-(piperidin-4-yl)-3H-imidazo[4,5-b]pyridin-2-yl)benzoate dihydrogen chloride salt], for which the midpoint of inhibition, the IC50, lay at 608 nM.
Still for that read-out and setting: as for `NC1CCN(c2ccc3nc(-c4ccc(OCc5ccccc5)cc4)[nH]c3n2)CC1` [Example 54], the figure is 583 nM; as for `c1ccc(COc2ccc(-c3nc4ccc(Nc5cn[nH]c5)nc4[nH]3)cc2)cc1` [Example 20, 2-(4-(benzyloxy)phenyl)-N-(1H-pyrazol-4-yl)-3H-imidazo[4,5-b]pyridin-5-amine], 847 nM.
The compound `O=C(O)c1cc(-c2nc3cc(C4CCNCC4)cnc3[nH]2)ccc1OCc1ccccc1` [Example 67, 2-(benzyloxy)-5-(6-(piperidin-4-yl)-3H-imidazo[4,5-b]pyridin-2-yl)benzoic acid dihydrochloride salt] yielded an IC50 of 3720 nM.
With `Cn1cc(-c2ccc3nc(-c4ccc(OCc5ccccc5)cc4)[nH]c3n2)cn1` [Example 107], inhibition was half-maximal at 1670 nM (IC50).
On the same count and under the same terms, as for `c1ccc(COc2ccc(-c3nc4ccc(-c5cncnc5)nc4[nH]3)cc2)cc1` [Example 106], the figure is 9000 nM; as for `CC(=O)N1CCC(c2cnc3[nH]c(-c4ccc(OCc5ccccc5)cc4)nc3c2)CC1` [Example 13, 1-(4-(2-(4-(Benzyloxy)phenyl)-3H-imidazo[4,5-b]pyridin-6-yl)piperidin-1-yl)ethanone], 339 nM; as for `CCOC(=O)N1CCC(c2ccc3nc(-c4ccc(OCc5ccccc5)cc4)[nH]c3n2)CC1` [Example 88, ethyl 4-(2-(4-(benzyloxy)phenyl)-3H-imidazo[4,5-b]pyridin-5-yl)piperidine-1-carboxylate], 477 nM.
Same read-out and setting: as for `c1ccc(OCc2ccc(-c3nc4cc(C5CCCNC5)cnc4[nH]3)cc2)cc1` (centres unmarked) [Example 16, 2-(4-(phenoxymethyl)phenyl)-6-(piperidin-3-yl)-3H-imidazo[4,5-b]pyridine], the figure is 107 nM; as for `Fc1ccccc1COc1ccc(-c2nc3ccc(N4CCNCC4)nc3[nH]2)cc1` [Example 57], 981 nM.
Still for that read-out and setting: as for `CCS(=O)(=O)N1CCC(c2ccc3nc(-c4ccc(OCc5ccccc5)cc4)[nH]c3n2)CC1` [Example 90, 2-(4-(benzyloxy)phenyl)-5-(1-(ethylsulfonyl)piperidin-4-yl)-3H-imidazo[4,5-b]pyridine], the figure is 148 nM; as for `CC(C)(C)OC(=O)N1CCC(CNc2ccc3nc(-c4ccc(OCc5ccccc5)cc4)[nH]c3n2)CC1` [Example 31, tert-butyl 4-(((2-(4-(benzyloxy)phenyl)-3H-imidazo[4,5-b]pyridin-5-yl)amino)methyl)piperidine-1-carboxylate], 1240 nM.

A further assay concerns histone H4 Arginine 3 dimethylation mark in TE11 cells. The experiment in a line: PRMT5 Biomarker Assay. The assay is classed as cell-based. The conditions noted are these: Homo sapiens, TE-11; TE11 cell line, 72 hours incubation, Di-Methyl Histone H4R3 ELISA corrected for total protein. Here is the method:
Compounds of the invention may be tested for potency to inhibit the histone H4 Arginine 3 dimethylation mark in the following assay:
The cell line TE11 was seeded at a density of 12,000 cells per well in 96 well tissue culture plates in DME medium and 10% foetal bovine serum, and allowed to adhere overnight under standard culture conditions (37° C., 5% CO2). […] The methylation level was determined using the EpiQuik™ Global Di-Methyl Histone H4R3 Quantification ELISA Kit (Epigentek, Farmingdale, N.Y.) as per the manufacturer's recommendations; in parallel the total protein amount in the lysate was quantified using a Lowry protein assay.
In general terms: In an ELISA, binding on a coated surface is turned into a signal by an enzyme label.
As for `c1ccc(COc2ccc(-c3nc4ccc(C5CCNCC5)nc4[nH]3)cc2)cc1` [Example 40, 2-(4-(benzyloxy)phenyl)-5-(piperidin-4-yl)-3H-imidazo[4,5-b]pyridine], the IC50 worked out at 731 nM. In other words, the sub-micromolar range.
The same measure, in the same setting: as for `c1ccc(OCc2ccc(-c3nc4cc(C5CCNCC5)cnc4[nH]3)cc2)cc1` [Example 9, 2-(4-(phenoxymethyl)phenyl)-6-(piperidin-4-yl)-3H-imidazo[4,5-b]pyridine], the figure is 645 nM; as for `C1=C(c2ccc3nc(-c4ccc(OCc5ccccc5)cc4)[nH]c3n2)CCNC1` [Example 45, 2-(4-(benzyloxy)phenyl)-5-(1,2,3,6-tetrahydropyridin-4-yl)-3H-imidazo[4,5-b]pyridine], 1210 nM; as for `c1ccc(OCc2ccc(-c3nc4cc(C5CCCNC5)cnc4[nH]3)cc2)cc1` (centres unmarked) [Example 16, 2-(4-(phenoxymethyl)phenyl)-6-(piperidin-3-yl)-3H-imidazo[4,5-b]pyridine], 1830 nM.
Same read-out and setting: as for `Clc1ccnc2[nH]c(-c3ccc(OCc4ccccc4)cc3)nc12` [Example 4, 2-(4-(benzyloxy)phenyl)-7-chloro-3H-imidazo[4,5-b]pyridine], the figure is 127 nM.
